# Values quoted from earlier work as cited in PMC7395068, “The evolution of strategies to minimise the risk of human drug-induced liver injury (DILI) in drug discovery and development” (Archives of Toxicology, 2020).
# Where two headings read alike, the source gives them in different places.
# Legend:
# [1] = ref Chen 2016; cited from earlier work
# [2] = system: HepG2 cells; conditions: In vitro Assay; ref O'Brien 2006; cited from earlier work
# [3] = system: HepG2 cells; conditions: In vitro Assay; ref Persson 2013; cited from earlier work
# [4] = system: human hepatocytes; conditions: In vitro Assay; ref Xu 2008; cited from earlier work
# [5] = system: THLE or HepG2 cells, isolated mitochondria, BSEP; conditions: In vitro Assay; ref Aleo 2019; cited from earlier work
# [6] = system: PHH spheroids; conditions: cited from earlier work; for hLiMTs ATP <20 x Cmax: In vitro Assay, ref Vorrink 2018
# [7] = cited from earlier work
# [8] = system: THLE-Null and THLE-3A4 cells; conditions: In vitro Assay; ref Gustafsson 2014; cited from earlier work
# [9] = system: HepG2 cells, primary human hepatocytes; conditions: In vitro Assay; ref Garside 2014; cited from earlier work
# [10] = system: rBsep; conditions: In vitro Assay; ref Dawson 2012; cited from earlier work
# [11] = system: HepG2 C3A spheroid, BSEP, Glu/Gal in HepG2 cells, bioactivation; conditions: cited from earlier work
# [12] = system: PHH; conditions: In vitro Assay; ref Proctor 2017; cited from earlier work
# [13] = system: hLiMTs; conditions: In vitro Assay; ref Proctor 2017; cited from earlier work
# [14] = system: primary human hepatocytes, NIH3T3 fibroblasts, BSEP, CYP3A4; conditions: In vitro Assay; ref Schadt 2015; cited from earlier work
# [15] = system: isolated mouse liver mitochondria; conditions: In vitro Assay; ref Porceddu 2012; cited from earlier work
SMILES,"DILI +VE (5-8), DILI -VE (-4) [1]",DILI severity category [1],Structural based (HCI) [4],hLiMTs ATP <20 x Cmax [6],In vivo DILI ([7]; ref Dawson 2012),In vivo DILI ([7]; ref Garside 2014),In vivo DILI ([7]; ref Gustafsson 2014),In vivo DILI ([7]; ref Vorrink 2018),In vivo DILI ([7]; ref Xu 2008),THLE-Null [8],Cluster 1-6 +VE Assay [9],Inhibition of rBsep cutoff<1& cmax u>.2 [10],THLE-Null/3A4 [8],Inhibition of rBsep cutoff<3 [10],further results
CN1Cc2c(N)cccc2C(c2ccccc2)C1 (stereo not shown) [nomifensine],+VE,vMost-DILI-Concern,-VE,+VE (IC20 < 20 × Cmax.tot cut-off),+VE,+VE,+VE,+VE,+VE,-VE,-VE,-VE,,,Structural based (HCI) [2]: -VE; Cluser analysis [3]: -VE; Structural based (HCI) [3]: -VE; Partition Hybrid HRM Score [5]: +VE; Ro2 Hybrid HRM Score [5]: -VE; In vivo DILI ([7]; ref Aleo 2019): +VE; In vivo DILI ([7]; ref O'Brien 2006): -VE; In vivo DILI ([7]; ref Persson 2013): +VE
CN1C[C@H](CNC(=O)OCc2ccccc2)C[C@@H]2c3cccc4c3c(cn4C)C[C@H]21 [metergoline],,,,,,,,,,,,,,,Bayesian Machine Learning ([11]; ref Williams 2019): -VE
CC(N/C(=N\C#N)Nc1ccncc1)C(C)(C)C (stereo not shown) [pinacidil],,,-VE,-VE,,,,,,-VE,+VE,-VE,-VE,+VE,Structural based (HCI) [2]: -VE; Cluser analysis [3]: -VE; Structural based (HCI) [3]: -VE; In vivo DILI ([7]; in vivo): -VE
CN(C)C(=O)Oc1ccc[n+](C)c1 [pyridostigmine],,,,,,,,,,,,,,,Bayesian Machine Learning [11]: -VE
CN(C)CCN(Cc1cccs1)c1ccccn1 [methapyrilene],,,,-VE,-VE,-VE,-VE,-VE,,-VE,-VE,,,,Structural based (HCI) [2]: +VE; In vivo DILI ([7]; ref O'Brien 2006): +VE
O=C(NC1CCN(CCc2c[nH]c3ccccc23)CC1)c1ccccc1 [indoramin],,,,,,,,,,,,,,,PHH ATP <100uM [12]: -VE; hLiMTs ATP <100uM [13]: -VE; Bayesian Machine Learning ([11]; ref Williams 2019): -VE; In vivo DILI ([7]; ref Proctor 2017): -VE; In vivo DILI ([7]; ref Williams 2019): -VE
"CC(C)NNC(=O)c1ccncc1 [iproniazid, reference compound]",+VE,vMost-DILI-Concern,,-VE,+VE,+VE,+VE,+VE,,-VE,-VE,-VE,-VE,-VE,"Cluser analysis [3]: -VE; Structural based (HCI) [3]: +VE; Partition Hybrid HRM Score [5]: -VE; Ro2 Hybrid HRM Score [5]: -VE; response of PHH spheroids at 5 × Cmax.tot ([6]; ATP, 14 days, not positive at higher concentrations, ref Vorrink et al. 2018): positive; In vivo DILI ([7]; […]): +VE; In vivo DILI ([7]; ref Aleo 2019): +VE; In vivo DILI ([7]; ref Persson 2013): +VE"
O=C(OCC(O)CO)c1ccccc1Nc1ccnc2cc(Cl)ccc12 (stereo not shown) [glafenine],+VE,vMost-DILI-Concern,-VE,-VE,+VE,+VE,+VE,+VE,+VE,-VE,+VE,+VE,+VE,+VE,In vivo DILI ([7]; […]): +VE
Cc1c(N(C)C)c(=O)n(-c2ccccc2)n1C [aminopyrine],,,,,,,,,,,,,,,Bayesian Machine Learning ([11]; ref Williams 2019): +VE
NNc1nnc(NN)c2ccccc12 [dihydralazine],,,,+VE (IC20 < 20 × Cmax.tot cut-off),+VE,+VE,+VE,+VE,,-VE,+VE,-VE,-VE,-VE,
NCCc1ccc(O)c(O)c1 [dopamine],-VE,vNo-DILI-Concern,-VE,-VE,-VE,-VE,-VE,-VE,-VE,-VE,-VE,-VE,-VE,-VE,
CC(C)(Oc1ccc(CCNC(=O)c2ccc(Cl)cc2)cc1)C(=O)O [bezafibrate],,,-VE,-VE,+VE,+VE,+VE,-VE,-VE,-VE,-VE,-VE,-VE,-VE,Cellular toxicity (3T3 cells) [14]: -VE; Combined Assay [14]: -VE; GSH adduct HML [14]: -VE; Hepatocyte cellular toxicity [14]: -VE; MitoTox 3T3 [14]: -VE; TDI CYP3A4 [14]: -VE; hBSEP inhibition [14]: -VE; Structural based (HCI) [2]: +VE; In vivo DILI ([7]; ref O'Brien 2006): -VE; In vivo DILI ([7]; ref Schadt 2015): -VE
CCCN(CCC)C(=O)Cc1c(-c2ccc(Cl)cc2)nc2ccc(Cl)cn12 [alpidem],+VE,vMost-DILI-Concern,,+VE (IC20 < 20 × Cmax.tot cut-off),+VE,+VE,+VE,+VE,,-VE,+VE,+VE,-VE,+VE,Cellular toxicity (3T3 cells) [14]: -VE; Combined Assay [14]: -VE; GSH adduct HML [14]: +VE; Hepatocyte cellular toxicity [14]: +VE; MitoTox 3T3 [14]: -VE; TDI CYP3A4 [14]: -VE; hBSEP inhibition [14]: +VE; Cluser analysis [3]: +VE; Structural based (HCI) [3]: +VE; In vivo DILI ([7]; […]): +VE; In vivo DILI ([7]; ref Persson 2013): +VE; In vivo DILI ([7]; ref Porceddu 2012): +VE; In vivo DILI ([7]; ref Schadt 2015): +VE; in vitro data EC2<=1x Cmax [15]: +VE; in vitro data EC20<=2uM [15]: +VE
CC(C)(C)NCC(O)c1ccc(O)c(CO)c1 (stereo not shown) [albuterol],,,,,,,,,,,,,,,Partition Hybrid HRM Score [5]: -VE; Ro2 Hybrid HRM Score [5]: -VE; Bayesian Machine Learning ([11]; ref Williams 2019): -VE; In vivo DILI ([7]; ref Aleo 2019): -VE; In vivo DILI ([7]; ref Proctor 2017): -VE; In vivo DILI ([7]; ref Williams 2019): -VE
Nc1nc(F)nc2c1ncn2[C@@H]1O[C@H](CO)[C@@H](O)[C@@H]1O [fludarabine],-VE,vNo-DILI-Concern,,,,,,,,,,,,,PHH ATP <100uM [12]: -VE; hLiMTs ATP <100uM [13]: +VE (IC50 threshold of 100 µM); Bayesian Machine Learning [11]: -VE; In vivo DILI ([7]; ref Proctor 2017): -VE; In vivo DILI ([7]; ref Williams 2019): -VE
Cc1ccc(Cl)c(Nc2ccccc2C(=O)O)c1Cl [meclofenamate],,,+VE,,,,,,+VE,,,,,,Bayesian Machine Learning ([11]; ref Williams 2019): +VE; In vivo DILI ([7]; ref Williams 2019): -VE
CC(=O)Nc1ccc(OCC(O)CNC(C)C)cc1 (stereo not shown) [practolol],,,,-VE,,,,,,-VE,-VE,-VE,,-VE,
Cc1ncc(CO)c(CO)c1O [pyridoxine],-VE,vNo-DILI-Concern,-VE,-VE,-VE,-VE,-VE,-VE,-VE,-VE,-VE,-VE,-VE,-VE,Structural based (HCI) [2]: +VE; Cluser analysis [3]: -VE; Structural based (HCI) [3]: -VE; In vivo DILI ([7]; ref O'Brien 2006): -VE; In vivo DILI ([7]; ref Persson 2013): -VE
O=C1[C@H](CC[C@H](O)c2ccc(F)cc2)[C@@H](c2ccc(O)cc2)N1c1ccc(F)cc1 [ezetimibe],+VE,vLess-DILI-Concern,,,,,,,,,,,,,"Bayesian Machine Learning ([11]; In vitro Assay, ref Williams 2019): -VE; In vivo DILI ([7]; ref Williams 2019): +VE"
CCN(CC)C(=S)SSC(=S)N(CC)CC [disulfiram],,,,+VE (IC20 < 20 × Cmax.tot cut-off),,,,,,+VE,+VE,,,,in vitro data EC2<=1x Cmax [15]: +VE
